According to article PMC11129499, “The hepatoprotective effect of 4-phenyltetrahydroquinolines on carbon tetrachloride induced hepatotoxicity in rats through autophagy inhibition” (Biological Research, 2024):

Legend:
[1] = In-vivo toxicity study (compounds only), serum liver, lipid and kidney tests; conditions: compound only, 25 mg/kg p.o. every 24 h for 14 days
Experimental: (§1) Rats were divided into eleven groups, with seven rats in each group. Group I, the control group, received corn oil (1 ml/kg body weight, i.p.) every 72 h for 14 days. Group II, the hepatotoxicity group, received CCl4 (1 ml/kg body weight, a 1:1 v/v mixture of CCl4 and corn oil, i.p.) every 72 h for 14 days. Groups III–VI, the treated groups, received compounds (1a, 1b, 2a, and 2b), respectively, (25 mg/kg body weight, suspended in 0.5% CMC, p.o.) every 24 h, as well as CCl4 (1 ml/kg body weight, a 1:1 v/v mixture of CCl4 and corn oil, i.p.) every 72 h for 14 days. […]
(§2) Rats were euthanized 24 h after the last dose of treatment with an inhaled overdose of isoflurane. […] Total protein content of all homogenates were determined using the Pierce™ BCA Protein Assay Kit (Catalog number: 23227, Thermo-Fisher Scientific Co., USA) following the manufacturer’s instructions. […]
A variety of colorimetric serum diagnostic kits were used to assess the toxicity and hepatoprotective potential of the newly synthesized derivatives. Lipid profile parameters, including total cholesterol (TC) and triglycerides (TG), as well as kidney function tests, urea, and creatinine were measured to evaluate the toxicity profile. […]

liver tissues = experiment: In-vivo toxicity study (compounds only), liver histopathology (H&E, Masson trichrome); parameters: key to fibrosis score in liver sections (safety profile): F0 = no fibrosis; F1 = mild/moderate; F2 = significant; F3 = advanced fibrosis; F4 = cirrhosis; conditions: compound only, 25 mg/kg p.o. 14 days; for fibrosis score in liver sections (safety profile): Masson trichrome, METAVIR; for lobular inflammation in liver sections (safety profile): H&E, noted less frequently in Cpd 2b
Experimental: (§3) Rats were divided into eleven groups, with seven rats in each group. Group I, the control group, received corn oil (1 ml/kg body weight, i.p.) every 72 h for 14 days. Group II, the hepatotoxicity group, received CCl4 (1 ml/kg body weight, a 1:1 v/v mixture of CCl4 and corn oil, i.p.) every 72 h for 14 days. Groups III–VI, the treated groups, received compounds (1a, 1b, 2a, and 2b), respectively, (25 mg/kg body weight, suspended in 0.5% CMC, p.o.) every 24 h, as well as CCl4 (1 ml/kg body weight, a 1:1 v/v mixture of CCl4 and corn oil, i.p.) every 72 h for 14 days. Group VII, the positive control group, received silymarin (100 mg/kg, suspended in 0.5% CMC, p.o.) every 24 h, as well as CCl4 (1 ml/kg body weight, a 1:1 v/v mixture of CCl4 and corn oil, i.p.) every 72 h for 14 days. Groups VIII–XI, the safety profile groups, received only compounds (1a, 1b, 2a, and 2b), respectively, (25 mg/kg, suspended in 0.5% CMC, p.o.) every 24 h for 14 days.
(§4) Rats were euthanized 24 h after the last dose of treatment with an inhaled overdose of isoflurane. Blood was extracted through a cardiac puncture, left for coagulation, and the serum was obtained by centrifugation for 10 min at 5000 rpm (GBF501, Centrifuge Cencom-II, Selecta). Livers were collected, then dissected into portions. One portion was fixed overnight in 10% buffered formalin (Adwic—El Nasr Pharmaceutical Co., Egypt) for histological examination. Another portion was homogenized, centrifuged at 10,000 rpm for 10 min, and the supernatants were collected for further investigation. Total protein content of all homogenates were determined using the Pierce™ BCA Protein Assay Kit (Catalog number: 23227, Thermo-Fisher Scientific Co., USA) following the manufacturer’s instructions. Liver tissues and homogenates were stored at − 80 °C until used.
(§5) Serial sectioning was done on the formalin-fixed liver tissues, which were then processed into paraffin blocks. Multiple serial, 5-μm-thick sections were cut and mounted on glass slides. One section was stained by H&E stain to assess the activity, while the other was stained by Masson trichrome stain to assess fibrosis. Both activity and fibrosis were assessed using a light microscope (Olympus, CX 22LED) using the METAVIR scoring system. For activity, the number of inflammatory foci (lobular necrosis) and degree of portal inflammation (piece meal necrosis) were evaluated, and then a final histological activity score was given (A0 = none, A1 = mild, A2 = moderate, and A3 = sever). Meanwhile, fibrosis assessment was done on Masson trichrome stained sections. The fibrosis scored according to a 4-tiered system (F0 = no fibrosis, F1 = mild/moderate, F2 = significant, F3 = advanced fibrosis, and F4 = cirrhosis). Other pathologic features, such as the presence or absence of steatosis and/or apoptotic hepatocytes, were assessed if present.

[2] = test system: Human hepatoma (HepG2) cells; experiment: MTT in-vitro cytotoxicity assay on HepG2 cells; type: cell-based; conditions: HepG2, 24 h treatment, 7.8125-500 μM
Experimental: Human hepatoma (HepG2) cells were used to evaluate the in-vitro cytotoxicity of the newly synthesized compounds compared to tacrine as their structure-inspiring drug. The HepG2 cell line was obtained from ATCC. The cells were cultured in DMEM with high glucose, supplemented with 10% FBS, 100 U/ml penicillin, and 1% streptomycin were maintained in a 37 °C incubator with 5% CO2 in a humidified atmosphere. One day before the treatment, cells were seeded at a density of 1 × 10^4 cells/well in a sterile flat bottom 96-well tissue culture plate. After leaving the cells to adhere for 24 h, cells were treated with different concentrations (7.8125, 15.625, 31.25, 62.5, 125, 250, and 500 μM) of each compound as well as tacrine for 24 h in the 5% CO2 incubator.
Thereafter, cell viability was assessed using a 3-(4,5-dimethyl-2-thiazolyl)-2,5-diphenyl-tetrazolium bromide (MTT) assay obtained from Biobasic inc (Canada). Following the 24-h treatment period, MTT was added to the wells at a final concentration of 0.5 mg/mL, and the cells were incubated for 4 h in the dark. Subsequently, the media were carefully removed from the wells, and the formed formazan crystals were dissolved by adding 100 μL of DMSO. Absorbance readings were taken using a microplate reader (BioTek, USA), and the percentage cell viability was calculated for each condition relative to the control cells treated with the same DMSO concentration.

[3] = test system: CCl4-induced hepatotoxicity; experiment: CCl4-induced hepatotoxicity model, liver histopathology (METAVIR scoring); type: in vivo, Wistar albino male rats; parameters: key to activity grade (METAVIR): A0 = none; A1 = mild; A2 = moderate; A3 = sever; key to fibrosis score (METAVIR): F0 = no fibrosis; F1 = mild/moderate; F2 = significant; F3 = advanced fibrosis; F4 = cirrhosis; conditions: 14 days
Experimental: as §3, §4, §5

LC3B = experiment: CCl4 model, LC3B ELISA in liver homogenates; type: in vivo, Wistar albino male rats; conditions: CCl4 + compound 25 mg/kg (silymarin 100 mg/kg) p.o. daily, 14 days
Experimental: as §1, §2
(§6) The pro-inflammatory and pro-fibrotic cytokines tumor necrosis factor alpha (TNF-α) and transforming growth factor beta (TGF-β) were evaluated in liver tissues using ELISA kits (Catalog Numbers: CSB-E11987r and CSB-E04727r, CUSABIO, USA). For further investigation of the potential mechanism of action of the synthesized compounds, the levels of autophagy-related proteins, Beclin-1 (Catalog Number: CSB-EL002658RA, CUSABIO, USA) and LC3B (Catalog No. LS-F19802, Lifespan Biosciences, USA), were quantified in liver homogenates. […]

[4] = test system: transforming growth factor beta (TGF-β); experiment: CCl4 model, TGF-β ELISA in liver tissues; type: in vivo, Wistar albino male rats; conditions: CCl4 + compound 25 mg/kg p.o. daily, 14 days; vs hepatotoxicity group unless stated
Experimental: as §1, §2, §6

[5] = test system: alpha-smooth muscle actin (α-SMA) positive HSCs/myofibroblasts; experiment: CCl4 model, α-SMA immunohistochemistry of liver sections; type: in vivo, Wistar albino male rats; conditions: CCl4 + compound 25 mg/kg p.o. daily, 14 days; vs hepatotoxicity group
Experimental: as §3
From paraffin-embedded blocks of liver tissues, 4- to 5-μm-thick sections were cut using a semi-automated microtome. […] They were stained by alpha-smooth muscle actin (α-SMA) primary antibody (Clone 1A4, ready-to-use, mouse monoclonal antibody, Dako) using the autostainer DAKO link 48. […] Using Image J software, activated HSCs/myofibroblasts were counted in the five high power fields. […] Only cells with well-visible nuclei were counted.

Beclin-1 = experiment: CCl4 model, Beclin-1 ELISA in liver homogenates; type: in vivo, Wistar albino male rats; conditions: CCl4 + compound 25 mg/kg (silymarin 100 mg/kg) p.o. daily, 14 days
Experimental: as §1, §2, §6

[6] = test system: CCl4-induced oxidative stress; experiment: CCl4 model, oxidative stress markers (MDA, GSH) in liver homogenates; type: in vivo, Wistar albino male rats; conditions: CCl4 + compound 25 mg/kg p.o. daily, 14 days; vs hepatotoxicity group unless stated
Experimental: as §3, with “Groups VIII–XI, the safety profile groups, received only compounds (1a, 1b, 2a, and 2b), respectively, (25 mg/kg, suspended in 0.5% CMC, p.o.) every 24 h for 14 days.” left out
as §2
The level of reduced glutathione (GSH) was measured in liver tissue homogenates using a colorimetric kit for GSH (Cat.No.E-BC-K030-M, Elabscience, USA). Malondialdehyde (MDA) levels were determined as thiobarbituric acid reactive substances (TBARS) in liver homogenates according to the method of Draper and Hadley.

[7] = test system: tumor necrosis factor alpha (TNF-α); experiment: CCl4 model, TNF-α ELISA in liver tissues; type: in vivo, Wistar albino male rats; conditions: CCl4 + compound 25 mg/kg p.o. daily, 14 days; vs hepatotoxicity group unless stated
Experimental: as §1, §2, §6

[8] = test system: CCl4-induced hepatotoxicity; experiment: CCl4-induced hepatotoxicity model, serum liver function tests; type: in vivo, Wistar albino male rats; conditions: CCl4 1 ml/kg i.p. every 72 h + compound 25 mg/kg p.o. daily, 14 days; vs hepatotoxicity group unless stated
Experimental: as §3, §4
A variety of colorimetric serum diagnostic kits were used to assess the toxicity and hepatoprotective potential of the newly synthesized derivatives. Lipid profile parameters, including total cholesterol (TC) and triglycerides (TG), as well as kidney function tests, urea, and creatinine were measured to evaluate the toxicity profile. Liver function tests, including alanine transaminase (ALT), aspartate transaminase (AST), alkaline phosphatase (ALP), and total bilirubin (TBIL) were used for the assessment of both hepatotoxicity and hepatoprotective potential. All diagnostic kits were purchased from Biodiagnostics, Egypt, and were used and stored according to the manufacturer’s instructions.

[9] = CCl4 + compound 25 mg/kg p.o. daily
[10] = CCl4 + compound 25 mg/kg (silymarin 100 mg/kg) p.o. daily

CN(C)c1ccc(-c2c3c([nH]c(=O)c2C#N)CCCC3)cc1 [Cpd 1a, 4-(4-(dimethylamino)phenyl)-1,2,5,6,7,8-hexahydro-2-oxoquinoline-3-carbonitrile]
total cholesterol (safety profile) [1]: significantly lowering | triglyceride levels (safety profile) [1]: significantly lowering | fibrosis score in liver sections (safety profile) (liver tissues): F0 | IC50 [2]: 181 µM | fibrosis score (METAVIR) ([3]; CCl4 + compound 25 mg/kg (silymarin 100 mg/kg) p.o. daily, hepatotoxicity group F4): F3 | steatosis and apoptotic cells in liver sections [3, 9]: Macrovesicular steatosis and apoptotic cells were still detected | activity grade (METAVIR) ([3]; CCl4 + compound 25 mg/kg p.o. daily, hepatotoxicity group A3): A2

N#Cc1c(-c2ccc(O)cc2)c2c([nH]c1=O)CCCC2 [Cpd 1b, 1,2,5,6,7,8-hexahydro-4-(4-hydroxyphenyl)-2-oxoquinoline-3-carbonitrile]
lobular inflammation in liver sections (safety profile) (liver tissues): mild, insignificant lobular inflammation (activity grade 1) | fibrosis score in liver sections (safety profile) (liver tissues): F0 | IC50 [2]: 174 µM | improvement of liver fibrosis / architecture, in words [3, 10]: better improvement in fibrosis score

CN(C)c1ccc(-c2c(C#N)c(N)nc3c2CCCC3)cc1 [Cpd 2a, 2-Amino-4-(4-(dimethylamino)phenyl)-5,6,7,8-tetrahydroquinoline-3-carbonitrile]
expression of LC3B protein (LC3B): greater impact on inhibiting autophagy compared to the other compounds tested | TGF-β level in liver tissues [4]: better effect on decreasing the level of both cytokines relative to compounds 1a and 1b and silymarin | number of α-SMA positive cells / 5 HPFs [5]: better levels of significance, closely aligning with silymarin | fibrosis score in liver sections (safety profile) (liver tissues): F0 | expression of Beclin-1 protein (Beclin-1): greater impact on inhibiting autophagy compared to the other compounds tested | MDA levels in liver homogenates [6]: highly superior to compounds 1a, 1b and silymarin | IC50 [2]: 171 µM | TNF-α level in liver tissues [7]: better effect on decreasing the level of both cytokines relative to compounds 1a and 1b and silymarin | improvement of liver fibrosis / architecture, in words [3, 10]: best protective effect on the liver sections | lobular and portal inflammation (activity), in words [3, 9]: improved markedly | steatosis and apoptotic cells in liver sections [3, 9]: No steatosis or apoptotic cells were detected | serum ALT [8]: as beneficial as silymarin | serum AST [8]: as beneficial as silymarin

N#Cc1c(N)nc2c(c1-c1ccc(O)cc1)CCCC2 [Cpd 2b, 2-Amino-5,6,7,8-tetrahydro-4-(4-hydroxyphenyl)quinoline-3-carbonitrile]
expression of LC3B protein (LC3B): greater impact on inhibiting autophagy compared to the other compounds tested | TGF-β level in liver tissues [4]: better effect on decreasing the level of both cytokines relative to compounds 1a and 1b and silymarin | number of α-SMA positive cells / 5 HPFs [5]: better levels of significance, closely aligning with silymarin | lobular inflammation in liver sections (safety profile) (liver tissues): mild, insignificant lobular inflammation (activity grade 1) | fibrosis score in liver sections (safety profile) (liver tissues): F0 | expression of Beclin-1 protein (Beclin-1): greater impact on inhibiting autophagy compared to the other compounds tested | MDA levels in liver homogenates [6]: highly superior to compounds 1a, 1b and silymarin | IC50 [2]: 169 µM | TNF-α level in liver tissues [7]: better effect on decreasing the level of both cytokines relative to compounds 1a and 1b and silymarin | improvement of liver fibrosis / architecture, in words [3, 10]: better improvement in fibrosis score | serum ALT [8]: as beneficial as silymarin | serum AST [8]: as beneficial as silymarin

Nc1c2c(nc3ccccc13)CCCC2 [tacrine, Tacrine, reference compound]
IC50 [2]: 124 µM
